# In paper PMC11562788, “Insights into the Hierarchical Assembly of a Chemically Diverse Peptide Hydrogel Derived from Human Semenogelin I” (ACS Nano, 2024):
# “Also recorded” adds a separate entry of the source. Residues, ends and D or L forms follow the SMILES beside them.
# Columns and labels:
# Format in all cases: physicochemical
# [1] = SAXS/WAXS of fibrils, elliptical cylinder model fit; details: for Fibril axis ratio / Fibril cross-sectional area / Fibril minor radius (minor semiaxis): SAXS, elliptical cylinder model fit, 2.0 mM, day 7 at 21 °C
# Experimental: Small- and wide-angle X-ray scattering (SAXS/WAXS) measurements were performed on a SAXSLabs Ganesha pinhole instrument (JJ X-ray System Aps) with an X-ray microsource (Xenocs) and a two-dimensional 300k Pilatus detector (Dectris Ltd., Switzerland). The wavelength, λ, used for all scattering experiments was 1.54 Å, and samples were measured at three sample-to-detector distances. All samples (200 μL) were loaded into a 1.5 mm diameter quartz capillary (Hilgenberg GmbH, Malsfeld, Germany), and the time-averaged scattering intensities were analyzed using a python code. The scattering intensity was corrected to an absolute scale by calibration against water. Supramolecular dimensions were extracted from SAXS data by using the SasView software and fitting the scattering curves to an elliptical-cylinder model (www.sasview.org).
# [2] = Stability of P0 gel in solution by MALDI-TOF mass spectrometry; details: P0 in H2O pH 8.0, chloride salt 1.0 mM and trifluoroacetate salt 0.5 mM, ambient temperature, 2 weeks, MALDI-TOF/TOF MS
# Experimental: The identity and purity of all peptides were verified by electrospray or matrix-assisted laser desorption/ionization time-of-flight (MALDI-TOF) mass spectrometry (Bryn Mawr College, PA, at the Chemical Center, Lund University, Lund, Sweden, or at the Laboratory for Biological Mass Spectrometry at Texas A&M University, College Station, TX). Mass spectra were typically acquired using an Autoflex Speed MALDI TOF/TOF mass spectrometer (Bruker Daltonics) in positive reflector mode. A 1 μL peptide sample was mixed with 0.5 μL matrix solution, consisting of 5 mg/ml α-cyano-4-hydroxy cinnamic acid, 80% acetonitrile, and 0.1% TFA, and added to a MALDI stainless steel plate. All spectra were externally calibrated using Peptide Calibration Standard II (Bruker Daltonics) containing 9 internal standard peptides. […]
# All samples were prepared in nonstick Eppendorf tubes (Axygen, Inc.). […] The concentration of the peptide solutions was verified with the UV–vis absorbance peak at 280 nm using a molar absorptivity of 2560 M^–1 cm^–1 for all sequences (P0–P7). […]
# Figure S16. P0 gel stability was evaluated by MALDI-TOF analysis. […] (A) A sample of P0 in H2O at pH 8.0, chloride salt (1.0 mM) and (B) trifluoroacetate salt (0.5 mM) were prepared for stability and analyzed by MALDI-TOF mass spectrometry. […]
# degradation was observed over 2 weeks. […] The calculated mass for P0 [M+H]+ m/z = 1585.72. […]
# [3] = Hydrogelation and gel appearance by visual inspection
# Experimental: All FTIR measurements were collected on samples where a trifluoroacetate (TFA^–) to chloride ion exchange was performed to eliminate signals from the TFA^– carbonyl moiety in the amide I spectral region (Figure S1). FTIR spectra were collected for P0–P5 in D2O at six pD values (3.0, 5.0, 7.0, 8.0, 9.0, and 10.0) (Figures S2–S7). FTIR analysis for P6–P8 was performed at a pD of 8.0 (Figures S8–S10). The bulk of FTIR studies were performed at pD 8.0, as the optimum pH range for hydrogelation is 7–9 for both SgI38–48[28] and P0.
# (§1) All samples were prepared in nonstick Eppendorf tubes (Axygen, Inc.). Prior to the final sample preparation (for all FTIR samples and when otherwise stated), the TFA counteranions present in the peptide sample after HPLC purification were exchanged for chloride using the following protocol: lyophilized peptide was dissolved in deionized D2O (1.0 mL). HCl was added at a molar ratio of 13.7:1 HCl:peptide. For the Phe^CN mutants, the sample was divided into two groups and lyophilized. One sample was then redissolved in H2O (to avoid obscuring the O–D stretches in the nitrile region) and the other in D2O (to avoid overlapping of the O-H bending vibrations in the amide I region) to a final concentration of 2.0 mM, unless otherwise specified. All other peptide samples were redissolved in D2O. The exchange of TFA^– to chloride may be verified by a lack of signal at 1672 cm^–1, seen in the IR spectrum for the deuterium-exchanged TFA salt of P3, where the carbonyl signal from TFA is well separated from the amide I carbonyl high frequency stretch at 1684 cm^–1 (Figure S1). On the day of the peptide sample preparation, D2O was placed in an Eppendorf tube, was then used as background when collecting data points (0 h, 48 h, 1 week, etc.), and was assumed to absorb the same amount of H2O over time as the peptide sample prepared on the same day. The concentration of the peptide solutions was verified with the UV–vis absorbance peak at 280 nm using a molar absorptivity of 2560 M^–1 cm^–1 for all sequences (P0–P7). The pH/pD of the samples was then corrected to 8.0 using small volumes of NaOH and HCl (or NaOD and DCl). After attaining the desired pH/pD, samples were incubated at ambient temperature (ca. 22 °C) and followed over 7 days (or as specified) to allow for hydrogelation.
# Solubility in water = assay: Solubility in water
# [4] = Cryo-TEM of fibril formation and morphology
# Experimental: Images were obtained at the National Center for High Resolution Electron Microscopy within Lund University on a JEOL JEM-2200 transmission electron microscopy instrument using a TVIPS F416 camera with an accelerator voltage of 200 kV. […] Grids were glow-discharged prior to sample preparation. Image processing was performed on the open-source software ImageJ (https://imagej.nih.gov) with the FIJI processing package.
# [5] = FTIR amide I: β-sheet self-assembly; details: D2O, pD 8.0, 2.0 mM (P7, P8 and F40FCN 1.0 mM), ambient temperature
# Experimental: as §1
# FT IR was performed with a Bruker Vertex 70 spectrometer with a photovoltaic mercury cadmium telluride (MTC) detector. Before the spectral collection, the MCT detector was cooled with liquid nitrogen. A background spectrum (see hydrogel sample preparation above) was collected (6 μL of H2O or D2O), and the collection chamber was purged for 15 min before 6 μL of sample was loaded in between two CaF2 windows and separated by a 50-μm Teflon spacer in a 25-mm diameter demountable liquid cell (Harrick Scientific). After purging again, the IR spectrum was collected with 512 scans, with a resolution of 2 cm^–1, from 900 cm^–1 to 4000 cm^–1 at time t = 0 h, 24 h, 48 h, and 1 week (and sometimes longer) after sample constitution, processed using OPUS spectroscopy software, and plotted with Origin or KaleidaGraph.
Fibril axis ratio ([1]; pH 8.0),Fibril cross-sectional area ([1]; pH 8.0) [nm^2],Fibril minor radius (minor semiaxis) ([1]; pH 8.0) [nm],Optimum pH range for hydrogelation ([3]; P0),"Hydrogel formation on pH adjustment ([3]; P0 in H2O at pH 8.0, chloride salt 1.0 mM and trifluoroacetate salt 0.5 mM)",Solubility in water (in words) (Solubility in water; P7 and P8 not tested above 1.0 mM at pH 8),"solubility (Solubility in water; pH 8.0, read-out: Solubility limit in water) [µM]","Fibril formation by SAXS scattering ([1]; 2.0 mM P0–P6, 1.0 mM P7, 7 days at 21 °C, pH 8.0)","Presence of fibrils (cryo-TEM) ([4]; pH 8.0 water, 2.0 mM (P7 1.0 mM), incubation at 21 °C)","Hydrogel formation ([3]; visual inspection, peptide in water/D2O, pH/pD 8.0, 2.0 mM (P7 1.0 mM), ambient temperature ca. 22 °C, up to 7 days)",Repeat distance of sharp SAXS peak at q = 0.305 Å^–1 ([1]; after 1 day of incubation at 21 °C) [nm],"Diameter of fibril bundle (cryo-TEM) ([4]; after 7 days of incubation at 21 °C, bundle of approximately 5 fibrils) [nm]",Structure (SMILES),Degradation in solution [2],"Gel appearance over time (clear or cloudy / precipitate) ([3]; visual inspection, 2.0 mM in D2O, pD 8.0, ambient temperature, 24 h to 6 days)",β-Sheet secondary structure (self-assembly) by FTIR amide I [5],"Colloidal stability / phase separation of the hydrogel ([3]; visual inspection after hydrogel preparation, pH/pD 8.0, 2.0 mM, ambient temperature)"
2.8,14.9,1.3,7–9,soft gel immediately formed,,,,,,,,CC[C@H](C)[C@H](NC(=O)[C@H](CO)NC(=O)[C@H](Cc1ccccc1)NC(=O)[C@H](CO)NC(=O)CNC(=O)[C@H](CCCCN)NC(C)=O)C(=O)N[C@@H](CCC(N)=O)C(=O)N[C@@H](Cc1ccc(O)cc1)C(=O)N[C@H](C(=O)N[C@@H](Cc1ccc(O)cc1)C(=O)N[C@@H](Cc1c[nH]cn1)C(=O)N[C@H](C(=O)N[C@@H](CC(=O)O)C(N)=O)C(C)C)[C@@H](C)O [P0] (Ac-KGSFSIQYTYHVD-NH2),"No appreciable, if any; also recorded: No degradation",usually yields a clear gel upon preparation but occasionally turns cloudy,,
,,,,,low solubility,1000,no significant scattering is observed,contains no fibrils,inability of P7 to form a hydrogel,,,CC(=O)N[C@@H](Cc1ccc(O)cc1)C(=O)N[C@H](C(=O)N[C@@H](Cc1ccc(O)cc1)C(=O)N[C@@H](Cc1c[nH]cn1)C(=O)N[C@H](C(=O)N[C@@H](CC(=O)O)C(N)=O)C(C)C)[C@@H](C)O [P7] (Ac-YTYHVD-NH2),,,no sign of a β-sheet secondary structure; also recorded: unstructured,
1.9,65.0,3.3,,,,,,,,2.1,~10,CC[C@H](C)[C@H](NC(C)=O)C(=O)N[C@@H](CCC(N)=O)C(=O)N[C@@H](Cc1ccc(O)cc1)C(=O)N[C@H](C(=O)N[C@@H](Cc1ccc(O)cc1)C(=O)N[C@@H](Cc1c[nH]cn1)C(=O)N[C@H](C(=O)N[C@@H](CC(=O)O)C(N)=O)C(C)C)[C@@H](C)O [P5] (Ac-IQYTYHVD-NH2),,,,colloidally unstable and undergoes phase separation
